From patent US10525055B2, “Opioid receptor antagonist prodrugs” (Nirsum Laboratories, Inc., priority 2017, dated 2020)

Experiments:
[1] = Polymorph screening of solid state drug substances; details: for XRPD results (Dried): stirred 50 °C 72 hours, solids dried; for Visual observation 50° C. / Visual observation RT: target conc. 100 mg/ml
[2] = Solubility determination in oil (cottonseed oil, sesame oil)
Description: A known amount of test substance (˜40 mg) was weighed into the vial, 100 μL of oil was added and heated to 60° C. and then system was slurried to reach equilibrium. […] Extra oil was added into the vial once compound precipitated out and then the system was re-equilibrated at 1000 rpm at room temperature (25° C.). Final concentration was determined by HPLC method as described below in Table 6a and 6b.

[3] = Plasma stability assay, rat plasma; type: in vitro ADME; details: 37° C., 10 μM
Description: Plasma stability determination of the test compounds in rat, dog, cynomolgus monkey and human plasma is performed using HPLC-MS. For rat, incubations are carried out in 96-well polypropylene plates in 5 aliquots of 70 μL each (one for each time point). […] Five time points are analyzed (0, 15, 120, 480 and 1440 min). For dog, monkey and human, test compounds (2 μM, final solvent concentration 1%) were also incubated at 37° C. and analyzed at five time points (0, 10, 30, 60 and 120 min). All incubations are performed in duplicates. The samples are analyzed by HPLC-MS. The percentage of parent compound remaining after incubation in plasma is determined.

[4] = heating temp. 60 °C, obs. temp. 40 °C
[5] = heating temp. 60 °C, obs. temp. 25 °C
[6] = heating temp. 40 °C, obs. temp. 40 °C

| Molecule | % remaining at time point in minutes, 0 min [3] [%] | % remaining at time point in minutes, 15 min [3] [%] | % remaining at time point in minutes, 120 min [3] [%] | % remaining at time point in minutes, 480 min [3] [%] | % remaining at time point in minutes, 1440 min [3] [%] | Approximate Solubility (mg/mL) in Excipient: Sesame oil [2, 5] [mg/mL] | also measured |
| --- | --- | --- | --- | --- | --- | --- | --- |
| C=C1CC[C@@]2(O)C3Cc4ccc(OC(=O)CCCCCCCCCCCCCCCCCCC)c5c4[C@@]2(CCN3CC2CC2)[C@H]1O5 [Compound 16, (4aS,7aS,12bS)-3-(cyclopropylmethyl)-4a-hydroxy-7-methylene-2,3,4,4a,5,6,7,7a-octahydro-1H-4,12-methanobenzofuro[3,2-e]isoquinolin-9-yl icosanoate] |  |  |  |  |  |  | XRPD results (Dried) ([1]; Acetone): Pattern A; Visual observation 50° C. ([1]; Acetone): Clear; Visual observation RT ([1]; Acetone): Slurry; XRPD results (Dried) ([1]; EtOAc): Pattern A; Visual observation 50° C. ([1]; EtOAc): Clear; Visual observation RT ([1]; EtOAc): Slurry; XRPD results (Dried) ([1]; Heptane): Pattern A; Visual observation 50° C. ([1]; Heptane): Slurry; Visual observation RT ([1]; Heptane): Slurry; XRPD results (Dried) ([1]; Isopropanol): Pattern A; Visual observation 50° C. ([1]; Isopropanol): Slurry; Visual observation RT ([1]; Isopropanol): Slurry; XRPD results (Dried) ([1]; MTBE): Pattern A; Visual observation 50° C. ([1]; MTBE): Clear; Visual observation RT ([1]; MTBE): Clear; Comment: stability of initial crystal form (pattern A) ([1]; polymorph screen over Heptane, MTBE, Isopropanol, EtOAc, Acetone): likely stable form. Same crystal form; Approximate Solubility (mg/mL) in Excipient: Sesame oil [2, 4]: 202 to 404 mg/mL |
| CCCCCCCCCCCCCCCCCC(=O)Oc1ccc2c3c1O[C@H]1C(=O)CC[C@@]4(O)C(C2)N(CC2CC2)CC[C@]314 [Compound 54, (4aS,7aR,12bS)-3-(cyclopropylmethyl)-4a-hydroxy-7-oxo-2,3,4,4a,5,6,7,7a-octahydro-1H-4,12-methanobenzofuro[3,2-e]isoquinolin-9-yl stearate] | 100 | 98.8 | 62.4 | 45.6 | 19.4 | <50 |  |
| CCCCCCCCCCCCCCCCCCCCCC(=O)Oc1ccc2c3c1O[C@H]1C(=O)CC[C@@]4(O)C(C2)N(CC2CC2)CC[C@]314 [Compound 51, (4aS,7aR,12bS)-3-(cyclopropylmethyl)-4a-hydroxy-7-oxo-2,3,4,4a,5,6,7,7a-octahydro-1H-4,12-methanobenzofuro[3,2-e]isoquinolin-9-yl docosanoate] | 100 | 107.4 | 105.3 | 88.2 | 92.7 |  |  |
| C=C1CC[C@@]2(O)C3Cc4ccc(OC(=O)OCCCCCCCC)c5c4[C@@]2(CCN3CC2CC2)[C@H]1O5 [Compound 17, (4aS,7aS,12bS)-3-(cyclopropylmethyl)-4a-hydroxy-7-methylene-2,3,4,4a,5,6,7,7a-octahydro-1H-4,12-methanobenzofuro[3,2-e]isoquinolin-9-yl octyl carbonate] | 100 | 0 | 0 | 0 | 0 |  | Approximate Solubility (mg/mL) in Excipient: Cottonseed oil [2, 5]: >408 mg/mL |
| CC(C)(C)CC(=O)Oc1ccc2c3c1O[C@H]1C(=O)CC[C@@]4(O)C(C2)N(CC2CC2)CC[C@]314 [Compound 42, (4aS,7aR,12bS)-3-(cyclopropylmethyl)-4a-hydroxy-7-oxo-2,3,4,4a,5,6,7,7a-octahydro-1H-4,12-methanobenzofuro[3,2-e]isoquinolin-9-yl 3,3-dimethylbutanoate] |  |  |  |  |  |  | Approximate Solubility (mg/mL) in Excipient: Sesame oil [2, 6]: <52 mg/mL; Approximate Solubility (mg/mL) in Excipient: Sesame oil [2, 4]: <25.8 mg/mL |
| CCCCCCCCCCCCCCOC(=O)OCOc1ccc2c3c1O[C@H]1C(=O)CC[C@@]4(O)C(C2)N(CC2CC2)CC[C@]314 [Compound 27, (((4aS,7aR,12bS)-3-(cyclopropylmethyl)-4a-hydroxy-7-oxo-2,3,4,4a,5,6,7,7a-octahydro-1H-4,12-methanobenzofuro[3,2-e]isoquinolin-9-yl)oxy)methyl tetradecyl carbonate] |  |  |  |  |  | >399.2 |  |
| C=C1CC[C@@]2(O)C3Cc4ccc(OC(=O)CCCCCCC/C=C\C/C=C\C/C=C\CC)c5c4[C@@]2(CCN3CC2CC2)[C@H]1O5 [Compound 20, (4aS,7aS,12bS)-3-(cyclopropylmethyl)-4a-hydroxy-7-methylene-2,3,4,4a,5,6,7,7a-octahydro-1H-4,12-methanobenzofuro[3,2-e]isoquinolin-9-yl (9Z,12Z,15Z)-octadeca-9,12,15-trienoate] |  |  |  |  |  |  | Approximate Solubility (mg/mL) in Excipient: Sesame oil [2, 6]: >406 mg/mL |
| CCCCC/C=C\C/C=C\CCCCCCCC(=O)Oc1ccc2c3c1O[C@H]1C(=O)CC[C@@]4(O)C(C2)N(CC2CC2)CC[C@]314 [Compound 53, (4aS,7aR,12bS)-3-(cyclopropylmethyl)-4a-hydroxy-7-oxo-2,3,4,4a,5,6,7,7a-octahydro-1H-4,12-methanobenzofuro[3,2-e]isoquinolin-9-yl (9Z,12Z)-octadeca-9,12-di.enoate] | 100 | 46.85 | 19.6 | 7.3 | 1.9 | >401.9 | Approximate Solubility (mg/mL) in Excipient: Cottonseed oil [2, 5]: >408.5 mg/mL; Approximate Solubility (mg/mL) in Excipient: Sesame oil [2, 4]: >406.3 mg/mL |
| CCCCCCCCCCCCCCCC(=O)OCOc1ccc2c3c1O[C@H]1C(=O)CC[C@@]4(O)C(C2)N(CC2CC2)CC[C@]314 [Compound 49, (((4aS,7aR,12bS)-3-(cyclopropylmethyl)-4a-hydroxy-7-oxo-2,3,4,4a,5,6,7,7a-octahydro-1H-4,12-methanobenzofuro[3,2-e]isoquinolin-9-yl)oxy)methyl hexadecanoate] |  |  |  |  |  | <51 |  |
| C=C1CC[C@@]2(O)C3Cc4ccc(OC(=O)CCC5CCCC5)c5c4[C@@]2(CCN3CC2CC2)[C@H]1O5 [Compound 39, (4aS,7aS,12bS)-3-(cyclopropylmethyl)-4a-hydroxy-7-methylene-2,3,4,4a,5,6,7,7a-octahydro-1H-4,12-methanobenzofuro[3,2-e]isoquinolin-9-yl 3-cyclopentylpropanoate] |  |  |  |  |  | 106 to 141 |  |
| CCCCCCCCCCCCCCCCCCCC(=O)Oc1ccc2c3c1O[C@H]1C(=O)CC[C@@]4(O)C(C2)N(CC2CC2)CC[C@]314 [Compound 50, (4aS,7aR,12bS)-3-(cyclopropylmethyl)-4a-hydroxy-7-oxo-2,3,4,4a,5,6,7,7a-octahydro-1H-4,12-methanobenzofuro[3,2-e]isoquinolin-9-yl icosanoate] | 100 | 114.5 | 102.7 | 83.3 | 73.9 | <52 |  |
| C=C1CC[C@@]2(O)C3Cc4ccc(OC(=O)OCCCCCCCCCCCCCCCCCC)c5c4[C@@]2(CCN3CC2CC2)[C@H]1O5 [Compound 33, (4aS,7aS,12bS)-3-(cyclopropylmethyl)-4a-hydroxy-7-methylene-2,3,4,4a,5,6,7,7a-octahydro-1H-4,12-methanobenzofuro[3,2-e]isoquinolin-9-yl octadecyl carbonate] |  |  |  |  |  | <51 |  |
| Enalapril maleate salt [reference compound] | 100 | 44 | 2.9 | 8.2 | 4.8 |  |  |
| CCCCCCCC/C=C\CCCCCCCCCCCC(=O)Oc1ccc2c3c1O[C@H]1C(=O)CC[C@@]4(O)C(C2)N(CC2CC2)CC[C@]314 [Compound 22, (4aS,7aR,12bS)-3-(cyclopropylmethyl)-4a-hydroxy-7-oxo-2,3,4,4a,5,6,7,7a-octahydro-1H-4,12-methanobenzofuro[3,2-e]isoquinolin-9-yl (Z)-docos-13-enoate] |  |  |  |  |  |  | Approximate Solubility (mg/mL) in Excipient: Ethanol ([2]; Ethanol, heating temp. 60 °C, obs. temp. 40 °C): >397.7 mg/mL; Approximate Solubility (mg/mL) in Excipient: Sesame oil [2, 4]: >401.9 mg/mL |
| C=C1CC[C@@]2(O)C3Cc4ccc(OC(=O)OCCCCCCCCCCCCCCCCCCCC)c5c4[C@@]2(CCN3CC2CC2)[C@H]1O5 [Compound 28, (4aS,7aS,12bS)-3-(cyclopropylmethyl)-4a-hydroxy-7-methylene-2,3,4,4a,5,6,7,7a-octahydro-1H-4,12-methanobenzofuro[3,2-e]isoquinolin-9-yl icosyl carbonate] |  |  |  |  |  | <50.6 |  |
